Values of other authors in patent US20070135470A1, “Utilization of vinpocetine to avoid complications in particular those associated to hearing which occur with epilepsy, and treatment thereof” (UNIVERSIDAD NACIONAL AUTONOMA DE MEXICO, priority 2003, published 2007).

What was measured:
presynaptic Na+ channels = settings: brain isolated nerve endings; Sitges and Nekrassov 1999; Trejo et al. 2001; cited from earlier work
[1] = system: guinea pig treated with amikacin; settings: high dose of amikacin; Nekrassov and Sitges 2000; cited from earlier work

In the case of `CCOC(=O)C1=C[C@]2(CC)CCCN3CCc4c(n1c1ccccc41)[C@@H]32` [Vinpocetine, ethyl apovincamine-22-oate], the “neurotransmitter release induced by an increase in presynaptic Na+ channels permeability” value (presynaptic Na+ channels) is given as “selectively inhibits” and the “protective action over changes in ABR waves, hearing loss and mortality induced by amikacin” value [1] is given as “long term (more than half a year) protective action”.
